Tests used:
[1] = molecular target: T1, glutathione S-transferase (GST)-fused full-length human Syk protein (Homo sapiens, UniProt P43405); assay: Syk enzyme assay; assay type: biochemical; settings: Syk enzyme assay, Test Example 1; read-out: IC50 of Syk-inhibitory activity
T1 construct: (GST)-fused full-length human Syk protein; GST (glutathione S-transferase); purchased Carna Biosciences
In short: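 IC50 values come from a time-resolved FRET readout (615 and 665 nm) of substrate phosphorylation, measured after an EDTA stop and 1 h antibody binding. The kinase reaction ran 40 min at room temperature with 27 μM ATP and 0.4 μM biotin-peptide, following a 15 min compound preincubation with baculovirus-made GST-full-length human Syk.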

THP-1 cells = assay: TNFα generation assay; assay type: cell-based, human; settings: Homo sapiens, THP-1, THP-1 cells; Table 22; read-out: IC50 in TNFα generation assay
In short: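 THP-1 cells differentiated to macrophage-like cells with 10 ng/ml IFN-γ for 2 days, preincubated with compound 30 min at room temperature, then cultured 7 h on plates coated with human IgG (10 μg/ml). Secreted TNFα measured by ELISA or AlphaLISA.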

| IC50 [1] [nM] | IC50 (THP-1 cells) [nM] | Structure (SMILES) |
| --- | --- | --- |
| < 10 | 65 to 130 | CCCC[C@@H](Nc1nc(Nc2ccc3c(cnn3CC)c2)c(C(N)=O)cc1F)[C@H](C)N [Example 006-388, 6-(((2S,3R)-2-aminoheptane-3-yl)amino)-2-((1-ethyl-1H-indazol-5-yl)amino)-5-fluoronicotinamide] |
| < 10 | 65 to 130 | CCCC[C@@H](Nc1nc(Nc2ccc3c(cnn3CCOC)c2)c(C(N)=O)cc1F)[C@H](C)N [Example 006-389, 6-(((2S,3R)-2-aminoheptane-3-yl)amino)-5-fluoro-2-((1-(2-methoxyethyl)-1H-indazol-5-yl)amino)nicotinamide] |
| < 10 | 65 to 130 | CCCC[C@@H](Nc1nc(Nc2cnc(C)c(-n3nccn3)c2)c(C(N)=O)cc1F)[C@H](C)N [Example 006-390, 6-(((2S,3R)-2-aminoheptan-3-yl)amino)-5-fluoro-2-((6-methyl-5-(2H-1,2,3-triazol-2-yl)pyridin-3-yl)amino)nicotinamide] |
| < 10 | 65 to 130 | C[C@H](N)[C@@H](CC1CC1)Nc1nc(Nc2cncc(-n3cccn3)c2)c(C(N)=O)cc1F [Example 006-392, 2-((5-(1H-pyrazol-1-yl)pyridin-3-yl)amino)-6-(((2R,3S)-3-amino-1-cyclopropylbutan-2-yl)amino)-5-fluoronicotinamide] |
| < 10 | 65 to 130 | COCCOc1cc(Nc2nc(N[C@H](CC3CC3)[C@H](C)N)c(F)cc2C(N)=O)ccn1 [Example 006-394, 6-(((2R,3S)-3-amino-1-cyclopropylbutan-2-yl)amino)-5-fluoro-2-((2-(2-methoxyethoxy)pyridin-4-yl)amino)nicotinamide] |
| < 10 | 65 to 130 | C=C(C)C[C@@H](Nc1nc(Nc2ccc3ncccc3c2)c(C(N)=O)cc1F)[C@H](C)N [Example 006-396, 6-(((2S,3R)-2-amino-5-methylhex-5-en-3-yl)amino)-5-fluoro-2-(quinolin-6-ylamino)nicotinamide] |
| < 10 | < 65 | C=C(C)C[C@@H](Nc1nc(Nc2ccc3c(cnn3CC)c2)c(C(N)=O)cc1F)[C@H](C)N [Example 006-397, 6-(((2S,3R)-2-amino-5-methylhex-5-en-3-yl)amino)-2-((1-ethyl-1H-indazol-5-yl)amino)-5-fluoronicotinamide] |
| < 10 | 65 to 130 | CCC[C@@H](Nc1nc(Nc2ccc3c(cnn3C)c2)c(C(N)=O)cc1F)[C@@H](N)CC [Example 006-398, 6-(((3S,4R)-3-aminoheptan-4-yl)amino)-5-fluoro-2-((1-methyl-1H-indazol-5-yl)amino)nicotinamide] |
| < 10 | < 65 | CCC[C@@H](Nc1nc(Nc2ccc3c(cnn3CCOC)c2)c(C(N)=O)cc1F)[C@@H](N)CC [Example 006-400, 6-(((3S,4R)-3-aminoheptan-4-yl)amino)-5-fluoro-2-((1-(2-methoxyethyl)-1H-indazol-5-yl)amino)nicotinamide] |
| 10 to 50 | 130 to 200 | CCC[C@@H](Nc1nc(Nc2ccnc(OCCOC)c2)c(C(N)=O)cc1F)[C@@H](N)CC [Example 006-401, 6-(((3S,4R)-3-aminoheptan-4-yl)amino)-5-fluoro-2-((2-(2-methoxyethoxy)pyridin-4-yl)amino)nicotinamide] |
| < 10 | 130 to 200 | CCC[C@@H](Nc1nc(Nc2cncc(C3CC3)c2)c(C(N)=O)cc1F)[C@@H](N)CC [Example 006-402, 6-(((3S,4R)-3-aminoheptan-4-yl)amino)-2-((5-cyclopropylpyridin-3-yl)amino)-5-fluoronicotinamide] |
| 10 to 50 | 130 to 200 | CCC[C@@H](Nc1nc(Nc2cnc(C)c(-n3nccn3)c2)c(C(N)=O)cc1F)[C@@H](N)CC [Example 006-403, 6-(((3S,4R)-3-aminoheptan-4-yl)amino)-5-fluoro-2-((6-methyl-5-(2H-1,2,3-triazol-2-yl)pyridin-3-yl)amino)nicotinamide] |
| < 10 | 130 to 200 | CCC[C@@H](Nc1nc(Nc2ccnc(OC)c2)c(C(N)=O)cc1F)[C@@H](N)CC [Example 006-404, 6-(((3S,4R)-3-aminoheptan-4-yl)amino)-5-fluoro-2-((2-methoxypyridin-4-yl)amino)nicotinamide] |
| < 10 | 130 to 200 | CCCC[C@@H](Nc1nc(Nc2cc(OC)nc(OC)c2)c(C(N)=O)cc1F)[C@H](C)N [Example 006-405, 6-(((2S,3R)-2-aminoheptan-3-yl)amino)-2-((2,6-dimethoxypyridin-4-yl)amino)-5-fluoronicotinamide] |
| < 10 | 65 to 130 | CCCC[C@@H](Nc1nc(Nc2ccnc(OC)c2)c(C(N)=O)cc1F)[C@H](C)N [Example 006-406, 6-(((2S,3R)-2-aminoheptan-3-yl)amino)-5-fluoro-2-((2-methoxypyridin-4-yl)amino)nicotinamide] |
| < 10 | 130 to 200 | CCCC[C@@H](Nc1nc(Nc2ccnc(OCCOC)c2)c(C(N)=O)cc1F)[C@H](C)N [Example 006-407, 6-(((2S,3R)-2-aminoheptan-3-yl)amino)-5-fluoro-2-((2-(2-methoxyethoxy)pyridin-4-yl)amino)nicotinamide] |
| < 10 | 130 to 200 | CCCC[C@@H](Nc1nc(Nc2cncc(C3CC3)c2)c(C(N)=O)cc1F)[C@H](C)N [Example 006-408, 6-(((2S,3R)-2-aminoheptan-3-yl)amino)-2-((5-cyclopropylpyridin-3-yl)amino)-5-fluoronicotinamide] |
| < 10 | 130 to 200 | COc1cc(Nc2nc(N[C@H](CC(C)C)[C@H](C)N)c(F)cc2C(N)=O)cc(OC)n1 [Example 006-409, 6-(((2S,3R)-2-amino-5-methylhexan-3-yl)amino)-2-((2,6-dimethoxypyridin-4-yl)amino)-5-fluoronicotinamide] |
| < 10 | 65 to 130 | COc1cc(Nc2nc(N[C@H](CC(C)C)[C@H](C)N)c(F)cc2C(N)=O)ccn1 [Example 006-410, 6-(((2S,3R)-2-amino-5-methylhexan-3-yl)amino)-5-fluoro-2-((2-methoxypyridin-4-yl)amino)nicotinamide] |
| < 10 | 130 to 200 | COCCOc1cc(Nc2nc(N[C@H](CC(C)C)[C@H](C)N)c(F)cc2C(N)=O)ccn1 [Example 006-411, 6-(((2S,3R)-2-amino-5-methylhexan-3-yl)amino)-5-fluoro-2-((2-(2-methoxyethoxy)pyridin-4-yl)amino)nicotinamide] |
| < 10 | 130 to 200 | CC(C)C[C@@H](Nc1nc(Nc2cncc(C3CC3)c2)c(C(N)=O)cc1F)[C@H](C)N [Example 006-412, 6-(((2S,3R)-2-amino-5-methylhexan-3-yl)amino)-2-((5-cyclopropylpyridin-3-yl)amino)-5-fluoronicotinamide] |
| < 10 | 65 to 130 | CCCC[C@H](CN)Nc1nc(Nc2ccc3c(cnn3CCF)c2)c(C(N)=O)cc1F [Example 006-414, (R)-6-((1-aminohexan-2-yl)amino)-5-fluoro-2-((1-(2-fluoroethyl)-1H-indazol-5-yl)amino)nicotinamide] |
| < 10 | 65 to 130 | CC(C)C[C@H](CN)Nc1nc(Nc2ccc3c(cnn3CCF)c2)c(C(N)=O)cc1F [Example 006-415, (R)-6-((1-amino-4-methylpentan-2-yl)amino)-5-fluoro-2-((1-(2-fluoroethyl)-1H-indazol-5-yl)amino)nicotinamide] |

Source: patent US8895585B2, “Nicotinamide derivative or salt thereof” (FUJIFILM Corporation, priority 2010, dated 2014)
